Test results from patent US11034839B2, “Compounds, linked with haptens, for the detection of senescent cells” (THE UNIVERSITY OF MANCHESTER, priority 2016, dated 2021).
“Also recorded” adds a separate entry of the source.

Assays:
[1] = test system: senescent cells in biological systems with established senescence; assay: Quantitative analysis and concordance of SA-b-gal, SBB and GL13 staining; details: FIG. 15
[2] = test system: lipofuscin; assay: Immunofluorescence staining / lipofuscin autofluorescence control; type: cell-based; details: fluorescence microscopy, FIG. 9
Protocol: In inventive example 6 the derivative LG13 was used to detect lipofuscin rich cells in cell spreads from cell culture by immunofluorescence staining.
Immunofluorescence staining protocol cellsor ounted on coverslips • 1. Wash ×1 in TBS for 5 min at RT. • 2. Wash ×1 in EtOH 50% for 5 min at RT. • 3. Wash ×1 EtOH 70% for 5 min at RT. • 4. Incubate with the compound (LG13) at RT. A drop of freshly prepared compound (LG13) is placed on a clean slide with the use of a syringe that carrying a 2 mm filter (see also FIG. 1 from Evangelou & Gorgoulis, 2016). Then the cover-slip with the cells is turned down (using thin edged forceps) on the slide and attached on the dye drop in a way that the material faces down the drop on the slide (All incubations were performed in chambers (cover slips) and coplin jars (glass slides) to avoid exsiccation of the material), (see also FIG. 1 from Evangelou & Gorgoulis, 2016). • 5. The staining reaction is monitored under the light microscope until detection of the signal (average time 5-8 min). • 6. Wash ×2 in EtOH 50%. • 7. Repeat washing ×2 in fresh EtOH 50%. • 8. Wash ×2 in TBS for 30 sec and ×1 for 5 min at RT. • 9. Incubate with 0.5% Triton X/TBS for 3 min at RT. • 10. Wash ×1 in TBS for 5 min at RT. • 11. […] Observe under the fluorescence microscope

[3] = test system: HeLa cancer cells and near normal Li-Fraumeni fibroblasts; assay: False-positive studies (cell confluency, serum starvation); type: cell-based, human
Excerpt: The in vitro models comprised seven cellular systems. […] The same cellular system was used at early passages that underwent SIPS upon y-irradiation and was compared in relation to non-irradiated counterparts. Another set of models comprised two inducible Saos2 Tet-ON osteosarcoma cell lines carrying p53 and p21^WAF1/Cip1, respectively, two well established effectors of senescence (Georgakopoulou et al., 2013; Galanos et al., 2016). Finally, the U2OS-E2F1 ER, U205-Cdt1 Tet-ON and HBECs-Cdc6 Tet-ON inducible systems that undergo SIPS due to oncogenic stress signals were also utilized (Petrakis et al., 2016; Liontos et al., 2007; Liontos et al., 2009). Parental cell lines were obtained either directly from ATCC or from collaborating laboratories that generated them. In addition, the human cancer cell line HeLa and near normal Li-Fraumeni fibroblasts (Galanos et al., 2016) were also employed as control cell lines for the specificity of staining of the SBB compounds.

[4] = test system: senescent cells in irradiated human laryngeal tumors, palbociclib treated human melanoma cell xenografts, mouse bleomycin-injected lung, mouse lung adenomas; assay: Streptavidin-HRP/DAB labeling of tissue sections; details: FIG. 5ai-di in comparison to FIGS. 2,3,4
Excerpt: In the inventive example 2, the derivative LG13 was used to detect senescent cells in tissue sections using streptavidin-horse radish peroxidase (HRP)/DAB labeling.
Tissue sections were obtained from paraffin embedded, formalin fixed: (a) irradiated human laryngeal tumors, (b) palbociclib treated human melanoma cell xenografts, (c) mouse bleomycin-injected lung and (d) mouse lung adenomas. Subsequently, they were immobilized on glass microscopy slides by standard procedures and processed as follows: • a. Deparaffinization for 5 min at room temperature in xylene • b. Gradual rehydration in solutions of descending concentration of ethanol (100%, 80%, 70%, 50% v/v) and finally in TBS (Tris-buffered saline) or PBS (Phosphate-buffered saline) solution. • c. Blocking of endogenous peroxidase activity with 3% H2O2 for 10 min. • d. Gradual dehydration of biopsy material in 50% (v/v) ethanol followed by 70% (v/v) ethanol for 5 min each step. • e. Application of the new compound LG13, linked with biotin, diluted in ethanol and filtered, on biopsy material for 10 min. • f. Quick wash in 50% (v/v) ethanol. • g. Transfer and wash in TBS or PBS solution. • h. Incubation in streptavidin-HRP (horse radish peroxidase) conjugated (dilution 1/200), for ½ hr at room temperature. • i. Quick wash in TBS or PBS solution. • j. […]

[5] = test system: senescent cells in induced Saos2-p21 cells and irradiated human diploid lung fibroblasts (DLFs); assay: Streptavidin-HRP/DAB labeling of cell spreads; type: cell-based; details: cell spreads on cover slips, panels 6ai and 6bi
Protocol: In inventive example 3, the derivative […] was used to detect senescent cells in cell spreads using streptavidin-horse radish peroxidase (HRP)/DAB labeling.
Induced and non-induced Saos2-p21^WAF1/Cip1 […] cells as well as human lung fibroblasts (DLFs) non- and y-irradiated were grown on cover slips and collected before and after the mentioned respective treatments for induction of senescence. Cover slips were treated as follows: • a. Fixation in ice-cold ethanol or methanol for 4 min. • b. Blocking of endogenous peroxidase activity with 3% H2O2 for 10 min. • c. Quick wash in 50% (v/v) ethanol. • d. Application of LG13 dye, diluted in ethanol and filtered, on cells for 10 min. • e. Quick wash in 50% (v/v) ethanol. • f. Transfer and wash in TBS or PBS solution. • g. Incubation in streptavidin-HRP (horse radish peroxidase) conjugated (dilution 1/200), for ½ hr at room temperature. • h. Quick wash in TBS or PBS solution. • i. Staining with 3,3′-Diaminobenzidine (DAB) solution (dilution 1/300 in TBS or PBS) for 1 min at room temperature. • j. Counterstain with Nuclear Fast Red, followed by mounting with glycerol and sealing with a cover slip. • k. Microscopy observation.

CC1(COC(=O)CCCC[C@H]2SC[C@H]3NC(=O)N[C@H]32)Nc2cccc3c(/N=N/c4ccc(/N=N/c5ccccc5)c5ccccc45)ccc(c23)N1 (stereo partly drawn) [LG13, (2-methyl-6-((E)-(4-((E)-phenyldiazenyl)naphthalen-1-yl)diazenyl)-2,3-dihydro-1H-perimidin-2-yl)methyl 5-((3aR,4R,6aS)-2-oxohexahydro-1H-thieno[3,4-d]imidazol-4-yl)pentanoate]
specificity compared among SA-b-gal, SBB and GL13 staining [1]: concordance of specificity | effect of staining on lipofuscin autofluorescence [2]: quenched; also recorded: “masks” the autofluorescence ability of lipofuscin | staining under cell confluency ([3]; HeLa and Li-Fraumeni fibroblasts, FIG. 17): Negative | staining of serum starved HeLa cells after formalin fixing and paraffin embedding ([3]; cell block, FIG. 18): negative | false-positive staining due to serum starvation and cell confluency ([3]; compared with SA-b-gal, FIGS. 17 and 18): deprived of the false-positive staining disadvantages | staining after serum starvation ([3]; in comparison to SA-β-gal that gave positive signal, FIG. 18): Negative | recognition of senescent cells compared to histochemical staining [4]: makes easier the recognition of senescent cells | colour of senescent cells after streptavidin-HRP/DAB detection [5]: clear dark-brown color
